# Assay results: patent publication US6472348B1, “Pyridone derivatives and herbicides” (Kumiai Chemical Industry Co., Ltd., priority 1996, dated 2002)
# Test system: monochoria (Mo)
# Assay: Test Example 1: herbicidal effects by paddy field soil treatment;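 also: grade of growth control; 5 = at least 90%; 4 = 70 to 90%; 3 = 50 to 70%; 2 = 30 to 50%; 1 = 10 to 30%; 0 = under 10%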
# Assay type: in vivo
# Details: 100 g of the active ingredient per 10 ares, 21st day after the application, index 0-5 of Table 47
# Method in brief: (§1)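 Greenhouse pot test in flooded paddy soil, dosed at 100 g a.i. per 10 ares; effect scored on day 21.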
row,SMILES,Herbicidal effects Mo
1,CC(C)COc1cc(-c2ccc(C(F)(F)F)n(C)c2=O)c(F)cc1Cl [1-168],5
2,CC=CCOc1cc(-c2ccc(C(F)(F)F)n(C)c2=O)c(F)cc1Cl [1-152],5
3,C=CCOc1cc(-c2cn(C)c(C(F)(F)F)cc2=O)c(F)cc1Cl [Compound 6-8],5
4,C#CCN1C(=O)COc2ccc(-c3ccc(C(F)(F)F)n(C)c3=O)cc21 [2-29],5
5,C=CCOc1cc(-c2cc(C)c(C(F)(F)F)n(C)c2=O)c(F)cc1Cl [1-77],5

# Test system: barnyardgrass (Ec)
# Assay: as above
# Assay type: in vivo
# Details: 100 g of the active ingredient per 10 ares, 21st day after the application, index 0-5 of Table 47
# Method in brief: as §1
row,SMILES,Herbicidal effects Ec
1,CC(C)COc1cc(-c2ccc(C(F)(F)F)n(C)c2=O)c(F)cc1Cl [1-168],5
2,CC=CCOc1cc(-c2ccc(C(F)(F)F)n(C)c2=O)c(F)cc1Cl [1-152],5
3,C=CCOc1cc(-c2cn(C)c(C(F)(F)F)cc2=O)c(F)cc1Cl [Compound 6-8],5
4,C#CCN1C(=O)COc2ccc(-c3ccc(C(F)(F)F)n(C)c3=O)cc21 [2-29],5
5,C=CCOc1cc(-c2cc(C)c(C(F)(F)F)n(C)c2=O)c(F)cc1Cl [1-77],5

# Test system: bulrush (Sc)
# Assay: as above
# Assay type: in vivo
# Details: 100 g of the active ingredient per 10 ares, 21st day after the application, index 0-5 of Table 47
# Method in brief: as §1
row,SMILES,Herbicidal effects Sc
1,CC(C)COc1cc(-c2ccc(C(F)(F)F)n(C)c2=O)c(F)cc1Cl [1-168],5
2,CC=CCOc1cc(-c2ccc(C(F)(F)F)n(C)c2=O)c(F)cc1Cl [1-152],5
3,C=CCOc1cc(-c2cn(C)c(C(F)(F)F)cc2=O)c(F)cc1Cl [Compound 6-8],5
4,C#CCN1C(=O)COc2ccc(-c3ccc(C(F)(F)F)n(C)c3=O)cc21 [2-29],5
5,C=CCOc1cc(-c2cc(C)c(C(F)(F)F)n(C)c2=O)c(F)cc1Cl [1-77],5

# Test system: barnyardgrass (Ec)
# Assay: Test Example 2: herbicidal effects by upland field soil treatment;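 also: grade of growth control; 5 = at least 90%; 4 = 70 to 90%; 3 = 50 to 70%; 2 = 30 to 50%; 1 = 10 to 30%; 0 = under 10%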
# Assay type: in vivo
# Details: 100 g of the active ingredient per 10 ares, 21st day after the application, index 0-5 of Table 47
# Excerpt: (§2) (Test on Herbicidal Effects by Upland Field Soil Treatment)
row,SMILES,Herbicidal effects Ec
1,CC(C)COc1cc(-c2ccc(C(F)(F)F)n(C)c2=O)c(F)cc1Cl [1-168],5
2,CC=CCOc1cc(-c2ccc(C(F)(F)F)n(C)c2=O)c(F)cc1Cl [1-152],5
3,C=CCOc1cc(-c2cc(C)c(C(F)(F)F)n(C)c2=O)c(F)cc1Cl [1-77],5

# Same assay, conditions: 100 g of the active ingredient per 10 ares, evaluated on the 21st day after application
row,SMILES,Herbicidal effects Ec
1,C=CCOc1cc(-c2cn(C)c(C(F)(F)F)cc2=O)c(F)cc1Cl [Compound 6-8],5
2,C#CCN1C(=O)COc2ccc(-c3ccc(C(F)(F)F)n(C)c3=O)cc21 [2-29],5

# Test system: common lambsquarters (Ch)
# Assay: as above
# Assay type: in vivo
# Details: 100 g of the active ingredient per 10 ares, 21st day after the application, index 0-5 of Table 47
# Excerpt: as §2
row,SMILES,Herbicidal effects Ch
1,CC(C)COc1cc(-c2ccc(C(F)(F)F)n(C)c2=O)c(F)cc1Cl [1-168],5
2,CC=CCOc1cc(-c2ccc(C(F)(F)F)n(C)c2=O)c(F)cc1Cl [1-152],5
3,C=CCOc1cc(-c2cc(C)c(C(F)(F)F)n(C)c2=O)c(F)cc1Cl [1-77],5

# Same assay, conditions: 100 g of the active ingredient per 10 ares, evaluated on the 21st day after application
row,SMILES,Herbicidal effects Ch
1,C=CCOc1cc(-c2cn(C)c(C(F)(F)F)cc2=O)c(F)cc1Cl [Compound 6-8],5
2,C#CCN1C(=O)COc2ccc(-c3ccc(C(F)(F)F)n(C)c3=O)cc21 [2-29],5

# Test system: pale smartweed (Po)
# Assay: as above
# Assay type: in vivo
# Details: 100 g of the active ingredient per 10 ares, 21st day after the application, index 0-5 of Table 47
# Excerpt: as §2
row,SMILES,Herbicidal effects Po
1,CC(C)COc1cc(-c2ccc(C(F)(F)F)n(C)c2=O)c(F)cc1Cl [1-168],5
2,CC=CCOc1cc(-c2ccc(C(F)(F)F)n(C)c2=O)c(F)cc1Cl [1-152],5
3,C=CCOc1cc(-c2cc(C)c(C(F)(F)F)n(C)c2=O)c(F)cc1Cl [1-77],5

# Same assay, conditions: 100 g of the active ingredient per 10 ares, evaluated on the 21st day after application
row,SMILES,Herbicidal effects Po
1,C=CCOc1cc(-c2cn(C)c(C(F)(F)F)cc2=O)c(F)cc1Cl [Compound 6-8],5
2,C#CCN1C(=O)COc2ccc(-c3ccc(C(F)(F)F)n(C)c3=O)cc21 [2-29],5

# Test system: slender amaranth (Am)
# Assay: as above
# Assay type: in vivo
# Details: 100 g of the active ingredient per 10 ares, 21st day after the application, index 0-5 of Table 47
# Excerpt: as §2
row,SMILES,Herbicidal effects Am
1,CC(C)COc1cc(-c2ccc(C(F)(F)F)n(C)c2=O)c(F)cc1Cl [1-168],5
2,CC=CCOc1cc(-c2ccc(C(F)(F)F)n(C)c2=O)c(F)cc1Cl [1-152],5
3,C=CCOc1cc(-c2cc(C)c(C(F)(F)F)n(C)c2=O)c(F)cc1Cl [1-77],5

# Same assay, conditions: 100 g of the active ingredient per 10 ares, evaluated on the 21st day after application
row,SMILES,Herbicidal effects Am
1,C=CCOc1cc(-c2cn(C)c(C(F)(F)F)cc2=O)c(F)cc1Cl [Compound 6-8],5
2,C#CCN1C(=O)COc2ccc(-c3ccc(C(F)(F)F)n(C)c3=O)cc21 [2-29],5

# Test system: rice flatsedge (Ci)
# Assay: as above
# Assay type: in vivo
# Details: 100 g of the active ingredient per 10 ares, 21st day after the application, index 0-5 of Table 47
# Excerpt: as §2
row,SMILES,Herbicidal effects Ci
1,CC(C)COc1cc(-c2ccc(C(F)(F)F)n(C)c2=O)c(F)cc1Cl [1-168],5
2,CC=CCOc1cc(-c2ccc(C(F)(F)F)n(C)c2=O)c(F)cc1Cl [1-152],5
3,C=CCOc1cc(-c2cc(C)c(C(F)(F)F)n(C)c2=O)c(F)cc1Cl [1-77],5

# Same assay, conditions: 100 g of the active ingredient per 10 ares, evaluated on the 21st day after application
row,SMILES,Herbicidal effects Ci
1,C=CCOc1cc(-c2cn(C)c(C(F)(F)F)cc2=O)c(F)cc1Cl [Compound 6-8],5
2,C#CCN1C(=O)COc2ccc(-c3ccc(C(F)(F)F)n(C)c3=O)cc21 [2-29],5

# Test system: Digitaria ciliaris (Di)
# Assay: as above
# Assay type: in vivo
# Details: 100 g of the active ingredient per 10 ares, 21st day after the application, index 0-5 of Table 47
# Excerpt: as §2
row,SMILES,Herbicidal effects Di
1,CC(C)COc1cc(-c2ccc(C(F)(F)F)n(C)c2=O)c(F)cc1Cl [1-168],5
2,CC=CCOc1cc(-c2ccc(C(F)(F)F)n(C)c2=O)c(F)cc1Cl [1-152],5
3,C=CCOc1cc(-c2cc(C)c(C(F)(F)F)n(C)c2=O)c(F)cc1Cl [1-77],5

# Same assay, conditions: 100 g of the active ingredient per 10 ares, evaluated on the 21st day after application
row,SMILES,Herbicidal effects Di
1,C=CCOc1cc(-c2cn(C)c(C(F)(F)F)cc2=O)c(F)cc1Cl [Compound 6-8],5
2,C#CCN1C(=O)COc2ccc(-c3ccc(C(F)(F)F)n(C)c3=O)cc21 [2-29],5

# Test system: barnyardgrass (Ec)
# Assay: Test Example 3: herbicidal effects by upland field foliage treatment
# Assay type: in vivo
# Set-up: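 grade of growth control; 5 = at least 90%; 4 = 70 to 90%; 3 = 50 to 70%; 2 = 30 to 50%; 1 = 10 to 30%; 0 = under 10%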
# Details: 100 g active ingredient per 10 ares, evaluated 14th day after treatment
# Method in brief: (§3)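 Post-emergence upland foliage test. Seedlings grown 2 weeks under glass in pots (120 cm^2) of sand, seed topped with soil; treated on the foliage, kept in greenhouse, then assessed at day 14 using rating standards.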
row,SMILES,Herbicidal effects Ec
1,C=CCOc1cc(-c2cn(C)c(C(F)(F)F)cc2=O)c(F)cc1Cl [Compound 6-8],5
2,C#CCN1C(=O)COc2ccc(-c3ccc(C(F)(F)F)n(C)c3=O)cc21 [2-29],5

# Same assay, conditions: 100 g of the active ingredient per 10 ares, evaluated on the 14th day after treatment
row,SMILES,Herbicidal effects Ec
1,CC(C)COc1cc(-c2ccc(C(F)(F)F)n(C)c2=O)c(F)cc1Cl [1-168],5
2,CC=CCOc1cc(-c2ccc(C(F)(F)F)n(C)c2=O)c(F)cc1Cl [1-152],5
3,C=CCOc1cc(-c2cc(C)c(C(F)(F)F)n(C)c2=O)c(F)cc1Cl [1-77],5

# Test system: common lambsquarters (Ch)
# Assay: as above
# Assay type: in vivo
# Set-up: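 grade of growth control; 5 = at least 90%; 4 = 70 to 90%; 3 = 50 to 70%; 2 = 30 to 50%; 1 = 10 to 30%; 0 = under 10%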
# Details: 100 g active ingredient per 10 ares, evaluated 14th day after treatment
# Method in brief: as §3
row,SMILES,Herbicidal effects Ch
1,C=CCOc1cc(-c2cn(C)c(C(F)(F)F)cc2=O)c(F)cc1Cl [Compound 6-8],5
2,C#CCN1C(=O)COc2ccc(-c3ccc(C(F)(F)F)n(C)c3=O)cc21 [2-29],5

# Same assay, conditions: 100 g of the active ingredient per 10 ares, evaluated on the 14th day after treatment
row,SMILES,Herbicidal effects Ch
1,CC(C)COc1cc(-c2ccc(C(F)(F)F)n(C)c2=O)c(F)cc1Cl [1-168],5
2,CC=CCOc1cc(-c2ccc(C(F)(F)F)n(C)c2=O)c(F)cc1Cl [1-152],5
3,C=CCOc1cc(-c2cc(C)c(C(F)(F)F)n(C)c2=O)c(F)cc1Cl [1-77],5

# Test system: pale smartweed (Po)
# Assay: as above
# Assay type: in vivo
# Set-up: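 grade of growth control; 5 = at least 90%; 4 = 70 to 90%; 3 = 50 to 70%; 2 = 30 to 50%; 1 = 10 to 30%; 0 = under 10%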
# Details: 100 g active ingredient per 10 ares, evaluated 14th day after treatment
# Method in brief: as §3
row,SMILES,Herbicidal effects Po
1,C=CCOc1cc(-c2cn(C)c(C(F)(F)F)cc2=O)c(F)cc1Cl [Compound 6-8],5
2,C#CCN1C(=O)COc2ccc(-c3ccc(C(F)(F)F)n(C)c3=O)cc21 [2-29],5

# Same assay, conditions: 100 g of the active ingredient per 10 ares, evaluated on the 14th day after treatment
row,SMILES,Herbicidal effects Po
1,CC(C)COc1cc(-c2ccc(C(F)(F)F)n(C)c2=O)c(F)cc1Cl [1-168],5
2,CC=CCOc1cc(-c2ccc(C(F)(F)F)n(C)c2=O)c(F)cc1Cl [1-152],5
3,C=CCOc1cc(-c2cc(C)c(C(F)(F)F)n(C)c2=O)c(F)cc1Cl [1-77],5

# Test system: slender amaranth (Am)
# Assay: as above
# Assay type: in vivo
# Set-up: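 grade of growth control; 5 = at least 90%; 4 = 70 to 90%; 3 = 50 to 70%; 2 = 30 to 50%; 1 = 10 to 30%; 0 = under 10%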
# Details: 100 g active ingredient per 10 ares, evaluated 14th day after treatment
# Method in brief: as §3
row,SMILES,Herbicidal effects Am
1,C=CCOc1cc(-c2cn(C)c(C(F)(F)F)cc2=O)c(F)cc1Cl [Compound 6-8],5
2,C#CCN1C(=O)COc2ccc(-c3ccc(C(F)(F)F)n(C)c3=O)cc21 [2-29],5

# Same assay, conditions: 100 g of the active ingredient per 10 ares, evaluated on the 14th day after treatment
row,SMILES,Herbicidal effects Am
1,CC(C)COc1cc(-c2ccc(C(F)(F)F)n(C)c2=O)c(F)cc1Cl [1-168],5
2,CC=CCOc1cc(-c2ccc(C(F)(F)F)n(C)c2=O)c(F)cc1Cl [1-152],5
3,C=CCOc1cc(-c2cc(C)c(C(F)(F)F)n(C)c2=O)c(F)cc1Cl [1-77],5

# Test system: rice flatsedge (Ci)
# Assay: as above
# Assay type: in vivo
# Set-up: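 grade of growth control; 5 = at least 90%; 4 = 70 to 90%; 3 = 50 to 70%; 2 = 30 to 50%; 1 = 10 to 30%; 0 = under 10%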
# Details: 100 g active ingredient per 10 ares, evaluated 14th day after treatment
# Method in brief: as §3
row,SMILES,Herbicidal effects Ci
1,C=CCOc1cc(-c2cn(C)c(C(F)(F)F)cc2=O)c(F)cc1Cl [Compound 6-8],5
2,C#CCN1C(=O)COc2ccc(-c3ccc(C(F)(F)F)n(C)c3=O)cc21 [2-29],5

# Same assay, conditions: 100 g of the active ingredient per 10 ares, evaluated on the 14th day after treatment
row,SMILES,Herbicidal effects Ci
1,CC(C)COc1cc(-c2ccc(C(F)(F)F)n(C)c2=O)c(F)cc1Cl [1-168],5
2,CC=CCOc1cc(-c2ccc(C(F)(F)F)n(C)c2=O)c(F)cc1Cl [1-152],5
3,C=CCOc1cc(-c2cc(C)c(C(F)(F)F)n(C)c2=O)c(F)cc1Cl [1-77],5

# Test system: Diaitaria ciliaris (Di)
# Assay: as above
# Assay type: in vivo
# Set-up: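 grade of growth control; 5 = at least 90%; 4 = 70 to 90%; 3 = 50 to 70%; 2 = 30 to 50%; 1 = 10 to 30%; 0 = under 10%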
# Details: 100 g active ingredient per 10 ares, evaluated 14th day after treatment
# Method in brief: as §3
row,SMILES,Herbicidal effects Di
1,C=CCOc1cc(-c2cn(C)c(C(F)(F)F)cc2=O)c(F)cc1Cl [Compound 6-8],5
2,C#CCN1C(=O)COc2ccc(-c3ccc(C(F)(F)F)n(C)c3=O)cc21 [2-29],5

# Same assay, conditions: 100 g of the active ingredient per 10 ares, evaluated on the 14th day after treatment
row,SMILES,Herbicidal effects Di
1,CC(C)COc1cc(-c2ccc(C(F)(F)F)n(C)c2=O)c(F)cc1Cl [1-168],5
2,CC=CCOc1cc(-c2ccc(C(F)(F)F)n(C)c2=O)c(F)cc1Cl [1-152],5
3,C=CCOc1cc(-c2cc(C)c(C(F)(F)F)n(C)c2=O)c(F)cc1Cl [1-77],5
